This is an account of results in patent US20070191460A1, “Use of Benzo-Heteroaryl Sulfamide Derivatives for the Treatment of Disease Modification / Epileptogenesis” (priority 2006, published 2007).

For this assay, the system named is amygdala kindled rat model of partial epilepsy. Put plainly: In Vivo, Amygdala Kindling Assay. Also on record: species or system Sprague-Dawley rats. The source says:
The development of amygdala kindling is an established model of epileptogenesis. (Amano K, Hamada K, Yagi K, Seino M. Antiepileptic effects of topiramate on amygdaloid kindling in rats. Epilepsy Res. 1998 July;31(2):123-8; Barton M E, White H S. The effect of CGX-1007 and CI-1041, novel NMDA receptor antagonists, on kindling acquisition and expression. Epilepsy Res. 2004 March;59(1):1-12; Loscher W, Honack D, Rundfeldt C. Antiepileptogenic effects of the novel anticonvulsant levetiracetam (ucb L059)in the kindling model of temporal lobe epilepsy. J Pharmacol Exp Ther. 1998 February;284(2):474-9; McNamara J O. Analyses of the molecular basis of kindling development. Psychiatry Clin Neurosci. 1995 June; 49(3):S175-8. Review.; Morimoto K, Katayama K, Inoue K, Sato K. Effects of competitive and noncompetitive NMDA receptor antagonists on kindling and LTP. Pharmacol Biochem Behav. 1991 December;40(4):893-9; Racine, R. J. 1972. Modification of seizure activity by electrical stimulation. II. Motor seizure. Electroencephalogr. Clin. Neurophysiol. 32, 281-294). The kindled rat model of partial epilepsy is an accepted model of epileptogenesis (McNamara J O. Analyses of the molecular basis of kindling development. Psychiatry Clin Neurosci. 1995 June;49(3):S175-8. Review.).
Briefly, the assay procedure was as follows. Adult male, Sprague-Dawley rats weighing between 250-300 g were obtained from Charles River, Wilmington, Mass. were used for experimental procedures. All animals were housed on a 12:12 light dark cycle and permitted free access to both food (Prolab RMH 3000) and water except when removed from the home cage for experimental procedures. Animals were cared for in a matter consistent with the recommendations detailed in the National Research Council Publication, “Guide for the Care and Use of Laboratory Animals” in a temperature controlled, pesticide-free facility. Kindling stimulations were routinely performed between 9 AM-2 PM to avoid any circadian variations.
Compound #1 was triturated in a small volume of 0.5% methylcellulose, sonicated for 10 min, and brought to a final volume with 0.5% methylcellulose. The compound was administered systemically (i.p.) in a volume of 0.04 ml/10 g body weight and all tests were conducted at the pre-determined time of peak effect of 0.5 hours after i.p. administration.
The ability of Compound #1 to block the expression of amygdala kindled seizures was determined. For this study, rats were anaesthetized with a ketamine (120 mg/kg, i.p.) and xylazine (12 mg/kg, i.p.) cocktail. […]
Amygdala kindling was then performed according to the following protocol (Barton and White, 2004). […] The behavioral seizure score and AD duration was recorded for rats in each treatment group. […]

For `NS(=O)(=O)NCc1csc2ccccc12` [Compound #1, N-(benzo[b]thien-3-ylmethyl)-sulfamide], the “behavioral seizure score (Racine scale) at the conclusion of the drug- and stimulus-free period” value (100 mg/kg i.p. 30 min before daily amygdala stimulation (200 μA, 2 s) for up to 13 days, re-challenged without drug after one-week stimulus- and drug-free period, n=10 rats, vehicle=4.6±0.24) is listed as 0.1±0.11. In addition, the “after-discharge (AD) duration over the kindling acquisition phase, versus vehicle” value (100 mg/kg i.p., daily stimulation, days 1-13, progressive increase in both groups) is recorded as “No statistical difference”. In addition, the “acquisition of the full generalized kindled seizure” value (100 mg/kg i.p., rats, kindling acquisition) is “prevented the acquisition of the full generalized kindled seizure”. Moreover, under “stimulated in the absence of drug after the drug-free week, seizure score rose parallel to vehicle-treated rats”, the “delay of the acquisition of kindling” value is reported as “delayed the acquisition of kindling by several days”.
